In ChEMBL document CHEMBL1201862, “PubChem BioAssay data set” (2004):
Active and inactive are the calls of the source. For most assays here, no stated cut-off is given here; in the data, actives have a measured AC50 and inactives only a lower limit.

Columns and labels:
[1] = cytotoxicity dependent on PAX8, dose response, cell-based, plate reader, dry powder (AID 743049); format: functional
[2] = cytotoxicity in OVCAR8 ovarian cancer cells, dose response, PAX8 project, cell-based, plate reader, dry powder samples (AID 743197); format: functional; details: OVCAR-8
[3] = cytotoxicity in COV434 cells, dose response, cytotoxicity control for PAX8 inhibitor project, cell-based, plate reader, dry powder, SA7 (AID 743145); format: functional
[4] = cytotoxicity in OV-90 ovarian cancer cells, dose response, PAX8 inhibitor project, cell-based, plate reader, dry powder, SA8 (AID 743149); format: functional
[5] = NIH:OVCAR-3 ovarian cancer cell cytotoxicity, dose response, PAX8 inhibitor project, plate reader, dry powder samples (AID 743044); format: functional, cell-based
Paired box protein Pax-8 = Paired box protein Pax-8 (Homo sapiens, UniProt Q06710); test: inhibitors of PAX8-driven TPO luciferase reporter, dose response, RMG-I cells, cherry-pick (AID 687027); format: functional, cell-based;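 further: luciferase reporter driven by Pax8 target thyroperoxidase promoter measured by SteadyGlo luminescence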
Sequence of Paired box protein Pax-8 (Q06710 whole entry): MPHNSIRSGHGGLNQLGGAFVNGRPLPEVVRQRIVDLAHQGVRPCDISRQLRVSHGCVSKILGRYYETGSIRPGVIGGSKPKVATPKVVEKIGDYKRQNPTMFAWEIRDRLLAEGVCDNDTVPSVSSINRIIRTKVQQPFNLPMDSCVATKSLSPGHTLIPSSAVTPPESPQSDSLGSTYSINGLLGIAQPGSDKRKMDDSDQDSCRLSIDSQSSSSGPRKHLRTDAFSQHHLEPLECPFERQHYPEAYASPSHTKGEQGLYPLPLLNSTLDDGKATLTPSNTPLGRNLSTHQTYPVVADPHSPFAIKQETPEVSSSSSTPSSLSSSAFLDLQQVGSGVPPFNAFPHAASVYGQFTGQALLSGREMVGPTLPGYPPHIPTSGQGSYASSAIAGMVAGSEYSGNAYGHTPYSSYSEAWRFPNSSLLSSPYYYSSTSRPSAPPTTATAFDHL

[6] = PAX2 cell-based inhibition, dose response, selectivity assay for PAX8 inhibitor project, plate reader, dry powder samples (AID 743048); format: functional;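 further: HEK293 cells carrying a WT1 promoter luciferase reporter driven by expressed Pax2; potency is for inhibition of Pax2 driven reporter signal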
[7] = PAX5 activity inhibitors, dose response, selectivity assay for PAX8 inhibitor project, cell-based, plate reader, dry powder samples (AID 743047); format: functional;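 further: HEK293 cells carrying a Pax5 driven CD19 promoter luciferase reporter; potency of inhibitors that lower reporter luminescence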
[8] = cytotoxicity in OVCAR4 cells, dose response, cytotoxicity control for PAX8 inhibitor project, cell-based, plate reader, dry powder, SA11 (AID 743150); format: functional; details: OVCAR-4
[9] = cytotoxicity in COV362 ovarian cancer cells, dose response, cytotoxicity control for PAX8 inhibitor project, cell-based, plate reader, dry powder, SA12 (AID 743144); format: functional
[10] = P. falciparum Dd2 growth inhibitors, dose response, SYBR Green, dry powder samples, set 4 (AID 1159572); format: functional, cell-based
[11] = HepG2 cell cytotoxicity, dose response, cytotoxicity control, plate reader, dry powder samples (AID 1159569); format: functional, cell-based;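 further: inhibitor potency with signal falling toward the positive control level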
[12] = P. falciparum Dd2 growth inhibitors, dose response, SYBR Green, cherry-picked samples (AID 1159567); format: functional, cell-based
[13] = P. falciparum Dd2 growth inhibitors, dose response, SYBR Green, dry powder samples (AID 1159566); format: functional, cell-based;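 further: potency for growth inhibition with lower SYBR green DNA signal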
[14] = P. falciparum ATP4 D1247Y mutant growth inhibitors, dose response, NITD609-resistant line, SYBR Green, dry powder (AID 1159571); format: functional, cell-based;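 further: parasites synchronized at ring stage by sorbitol before testing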
[15] = P. falciparum 3D7-ScDHODH growth inhibitors, dose response, SYBR Green, dry powder samples (AID 1159570); format: functional, cell-based;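 further: parasite growth measured after 72 hours of compound exposure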

Measured: AC50

C[C@@H]1CN([C@@H](C)CO)C(=O)Cc2cc(NS(=O)(=O)c3ccccc3)ccc2O[C@H]1CN(C)Cc1ccc(C(F)(F)F)cc1
active: [1] 11.1 µM | [2] 23.9 µM | [3] 32.6 µM | [4] 28.5 µM | [5] 23.4 µM | Paired box protein Pax-8 6.03 µM | [6] 17 µM | [7] 18.8 µM | [8] 45.6 µM | [9] 31.6 µM

COc1ccc2c3c([nH]c2c1)[C@H](CO)N(C(C)=O)CC31CCN(S(=O)(=O)c2cccs2)CC1
active: [10] 8.2 µM

CO[C@@H]1CN(C)C(=O)c2cc(NC(=O)Nc3ccc(C(F)(F)F)cc3)ccc2OC[C@H](C)NC[C@H]1C
active: [11] 19.3 µM | [12] 2.01 µM | [13] 2.28 µM | [14] 3.24 µM | [15] 1.61 µM
